Laboratory results taken from patent US8933099B2, “Monocyclic pyridine derivative” (Eisai R&D Management Co., Ltd., priority 2013, dated 2015).

Legend:
Type in all cases: in vivo
[1] = tested on: human stomach cancer cell line SNU-16 xenograft; assay: Antitumor effect in SNU-16 subcutaneous xenograft model in mice; conditions: oral, once a day for 11 days, tumor volume last day
Source text: Human stomach cancer cell line SNU-16, which had been cultured in an RPMI-1640 medium containing 10% FBS, and penicillin and streptomycin, were adjusted to a concentration of 1×10^8 cells/mL with Hanks' Balanced Salt Solution (GIBCO #24020) to prepare a cell suspension, and the suspension was mixed with […] (BD Biosciences, Cat#354234) in a ratio of 1:1 to prepare a cell suspension in a concentration of 5×10^7 cells/ml. The cell suspension was inoculated in a volume of 100 ut into a subcutaneous part of a right flank of nude mice, 6 to 7 weeks of ages (BALB/cAiel-nu/nu, female, Clea Japan Inc.). Seven days after cell inoculation, the shortest diameter and the longest diameter of a tumor in each mouse were measured by using an electronic digital caliper (Digimatie™ caliper, Mitutoyo Corporation), so as to calculate the volume of the tumor in accordance with the following calculation formula: Tumor volume(mm^3)Longest diameter(mm)×Shortest diameter(mm)×Shortest diameter(mm)/2
(§1) On the basis of the volumes of tumors obtained on the first day of administration, the nude mice were grouped such that averages of the tumor volumes were substantially equal among the groups. Each test substance was dissolved in DMSO, Tween 80 was added thereto to prepare a solution in a 10-fold concentration and the thus prepared solution was stored at the freezer before use. Immediately before the administration, the stock solution was diluted with a 5% glucose solution to obtain a final administration solution (in which a ratio in % among DMSO, Tween 80 and the 5% glucose solution was 3.5:6.5:90). Each evaluation sample was orally administered to test substance administration group at a volume of 0.4 mL per 20 g of body weight once a day continuously for 11 days, and in a control group, an administration solvent was orally administered under the same conditions. Incidentally, the experiment was conducted on groups each consisting of 5 mice.
(§2) With respect to each of the control group and test substance administration group, a ratio of the weight measured on the final day to the weight measured on the first day (relative body weight: RBW) was calculated. If a ratio of the RBW of the test substance administration group/the RBW of the control group is 0.9 or mom, the corresponding test substance administration group was defined as a well-tolerated. In the test substance administration group thus defined as well-tolerated, a ratio of the tumor volume of the test substance-dosing group to the tumor volume of the control group obtained on the last day (TIC) (%) was calculated, and shown in Table 21.

[2] = tested on: human lung cancer cell line NCI-H1581 xenograft; assay: Antitumor effect in NCI-H1581 subcutaneous xenograft model in mice; conditions: oral, once a day for 11 days, tumor volume last day
Procedure: Human lung cancer cell line NCI-H1581, which had been cultured in RPMI-1640 medium containing 10% FBS, and penicillin and streptomycin, were adjusted to a concentration of 1×10^8 cells/mL with Hanks' Balanced Salt Solution(GIBCO #24020) to prepare a cell suspension, and the suspension was mixed with […] in a ratio of 1:1 to prepare a cell suspension in a concentration of 5×10^7 cells/mL. The cell suspension was inoculated in a volume of 100 μL into a subcutaneous part of a right flank of each of nude mice, 6 to 7 weeks of ages (BALB/cAJcl-nu/nu, female, Clea Japan Inc.). Ten to 11 days after the cell inoculation, the shortest diameter and the longest diameter of a tumor in each mouse were measured by using an electronic digital caliper (Digimatic™ caliper, Mitutoyo Corporation), so as to calculate the volume of the tumor in accordance with the following calculation formula: Tumor volume(mm^3)=Longest diameter(mm)×Shortest diameter(mm)×Shortest diameter(mm)/2
as §1
as §2, with “more,” for “mom,”, “22.” for “21.”

[3] = tested on: human endometrial cancer cell line MFE296 xenograft; assay: Antitumor effect in MFE296 subcutaneous xenograft model in mice; conditions: oral, once a day for 14 days, tumor volume last day
Source text: Human endometrial cancer cell line MFE296 (DSMZ Number ACC-419), which had been cultured in an RPMI-1640 medium containing 10% FBS, and penicillin and streptomycin, were adjusted to a concentration of 1×10^8 cells/mL with Hanks' Balanced Salt Solution (GIBCO #24020) to prepare a cell suspension, and the suspension was mixed with […] (BD Biosciences, Cat#354234) in a ratio of 1:1 to prepare a cell suspension in a concentration of 5×10^7 cells/ml. The suspension was inoculated in a volume of 100 μL into a subcutaneous part of a right flank of nude mice, 7 weeks of age (BALB/cAJcl-nu/nu, female, Clea Japan Inc.). Twelve days after cell inoculation, the shortest diameter and the longest diameter of a tumor in each mouse were measured by using an electronic digital caliper (Digimatic™ caliper, Mitutoyo Corporation), so as to calculate the volume of the tumor in accordance with the following calculation formula: Tumor volume(mm^3)=Longest diameter(mm)×Shortest diameter(mm)×Shortest diameter(mm)/2
as §1, with “14” for “11”
as §2, with “more,” for “mom,”, “27.” for “21.”

## CNC(=O)n1ccc2cc(Oc3ccnc(NC(=O)c4ccc(C5CCN(CCO)CC5)cc4)c3)c(OCCOC)cc21 [Example 22, 5-((2-(4-(1-(2-Hydroxyethyl)piperidin-4-yl)benzamide)pyridin-4-yl)oxy)-6-(2-methoxyethoxy)-N-methyl-1H-indole-1-carboxamide]
[1]; 6.25 mg/kg
  T/C (%): 49%
[1]; 12.5 mg/kg
  T/C (%): 26%
[1]; 25 mg/kg
  T/C (%): 17%
[1]; 50 mg/kg
  T/C (%): 18%
[2]; 6.25 mg/kg
  T/C (%): 46%
[2]; 12.5 mg/kg
  T/C (%): 21%
[2]; 25 mg/kg
  T/C (%): 13%
[2]; 50 mg/kg
  T/C (%): 8%
[3]; 6.25 mg/kg
  T/C (%): 91%
[3]; 12.5 mg/kg
  T/C (%): 85%
[3]; 25 mg/kg
  T/C (%): 60%
[3]; 50 mg/kg
  T/C (%): 54%
